Experiment [1] concerns the target T1, Adrenergic receptor alpha-1 (Rattus norvegicus, UniProt P15823+P23944+P43140).
T1 sequence (P15823 whole entry): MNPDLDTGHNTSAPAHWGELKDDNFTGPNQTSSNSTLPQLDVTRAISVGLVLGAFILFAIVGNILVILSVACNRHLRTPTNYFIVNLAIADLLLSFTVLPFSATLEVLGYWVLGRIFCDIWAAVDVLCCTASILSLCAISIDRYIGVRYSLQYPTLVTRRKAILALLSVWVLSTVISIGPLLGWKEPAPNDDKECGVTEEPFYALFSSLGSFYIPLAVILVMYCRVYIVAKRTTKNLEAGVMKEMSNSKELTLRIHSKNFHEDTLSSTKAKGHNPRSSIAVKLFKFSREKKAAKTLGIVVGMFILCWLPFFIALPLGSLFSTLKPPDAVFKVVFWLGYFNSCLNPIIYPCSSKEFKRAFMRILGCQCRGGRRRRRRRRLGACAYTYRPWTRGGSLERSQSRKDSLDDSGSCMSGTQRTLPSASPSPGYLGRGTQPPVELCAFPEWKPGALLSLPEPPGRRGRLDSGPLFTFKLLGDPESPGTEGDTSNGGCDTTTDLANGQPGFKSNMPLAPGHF
T1 sequence (P23944 whole entry): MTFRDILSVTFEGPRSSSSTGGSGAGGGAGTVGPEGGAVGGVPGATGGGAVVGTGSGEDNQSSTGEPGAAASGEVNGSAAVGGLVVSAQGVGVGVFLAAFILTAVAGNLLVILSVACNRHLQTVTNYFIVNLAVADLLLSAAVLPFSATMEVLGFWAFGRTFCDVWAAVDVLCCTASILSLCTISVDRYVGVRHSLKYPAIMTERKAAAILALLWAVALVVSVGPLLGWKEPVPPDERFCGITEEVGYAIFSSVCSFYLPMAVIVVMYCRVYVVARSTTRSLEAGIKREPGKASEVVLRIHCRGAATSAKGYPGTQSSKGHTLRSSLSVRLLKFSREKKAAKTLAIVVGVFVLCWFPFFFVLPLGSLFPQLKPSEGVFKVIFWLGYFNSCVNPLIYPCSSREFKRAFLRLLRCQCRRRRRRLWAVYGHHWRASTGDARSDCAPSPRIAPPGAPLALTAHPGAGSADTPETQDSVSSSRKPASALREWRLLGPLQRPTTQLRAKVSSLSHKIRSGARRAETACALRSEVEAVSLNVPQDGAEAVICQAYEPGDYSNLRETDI
T1 sequence (P43140 whole entry): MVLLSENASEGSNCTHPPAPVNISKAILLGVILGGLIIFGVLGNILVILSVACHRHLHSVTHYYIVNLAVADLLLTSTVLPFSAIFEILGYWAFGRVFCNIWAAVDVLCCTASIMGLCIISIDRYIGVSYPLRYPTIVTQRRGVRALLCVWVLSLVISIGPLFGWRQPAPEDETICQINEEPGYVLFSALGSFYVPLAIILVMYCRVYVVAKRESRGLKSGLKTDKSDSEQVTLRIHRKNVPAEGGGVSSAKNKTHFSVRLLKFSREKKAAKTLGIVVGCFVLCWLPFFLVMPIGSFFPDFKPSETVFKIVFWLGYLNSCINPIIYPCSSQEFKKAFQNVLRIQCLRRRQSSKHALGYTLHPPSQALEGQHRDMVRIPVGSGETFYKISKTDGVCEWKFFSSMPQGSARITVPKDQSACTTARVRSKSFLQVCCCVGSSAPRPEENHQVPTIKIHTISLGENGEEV
Put plainly: Binding affinity towards Alpha-1 adrenergic receptor in rat cerebral cortex membranes using [3H]prazosin as radioligand. Format: cell membranes, Membrane.

Experiment [2] addresses T2, 5-hydroxytryptamine receptor 1A (Rattus norvegicus, UniProt P19327).
T2 sequence (P19327 whole entry): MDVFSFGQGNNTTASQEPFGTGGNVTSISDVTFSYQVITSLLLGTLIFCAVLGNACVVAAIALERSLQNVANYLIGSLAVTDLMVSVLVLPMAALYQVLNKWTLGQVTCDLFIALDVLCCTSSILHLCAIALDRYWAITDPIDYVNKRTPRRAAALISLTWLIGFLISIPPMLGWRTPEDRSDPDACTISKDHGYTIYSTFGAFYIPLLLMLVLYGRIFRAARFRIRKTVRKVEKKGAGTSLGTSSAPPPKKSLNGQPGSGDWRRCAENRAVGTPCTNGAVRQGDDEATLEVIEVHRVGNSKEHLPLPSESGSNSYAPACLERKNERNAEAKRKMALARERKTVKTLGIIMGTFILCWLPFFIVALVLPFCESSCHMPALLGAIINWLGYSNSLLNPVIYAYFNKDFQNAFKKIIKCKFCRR
Put plainly: Binding affinity towards 5-HT 1A receptor in rat cerebral cortex membranes using [3H]8-OH-DPAT as radioligand. It is filed as cell membranes, Membrane.

In experiment [3] the target is Sodium-dependent serotonin transporter (Rattus norvegicus, UniProt P31652). As to the kind of experiment: Binding affinity towards 5-HT transporter in rat cerebral cortex membranes using [3H]paroxetine as radioligand. Format: cell membranes, Membrane.
Sequence of Sodium-dependent serotonin transporter (P31652 whole entry): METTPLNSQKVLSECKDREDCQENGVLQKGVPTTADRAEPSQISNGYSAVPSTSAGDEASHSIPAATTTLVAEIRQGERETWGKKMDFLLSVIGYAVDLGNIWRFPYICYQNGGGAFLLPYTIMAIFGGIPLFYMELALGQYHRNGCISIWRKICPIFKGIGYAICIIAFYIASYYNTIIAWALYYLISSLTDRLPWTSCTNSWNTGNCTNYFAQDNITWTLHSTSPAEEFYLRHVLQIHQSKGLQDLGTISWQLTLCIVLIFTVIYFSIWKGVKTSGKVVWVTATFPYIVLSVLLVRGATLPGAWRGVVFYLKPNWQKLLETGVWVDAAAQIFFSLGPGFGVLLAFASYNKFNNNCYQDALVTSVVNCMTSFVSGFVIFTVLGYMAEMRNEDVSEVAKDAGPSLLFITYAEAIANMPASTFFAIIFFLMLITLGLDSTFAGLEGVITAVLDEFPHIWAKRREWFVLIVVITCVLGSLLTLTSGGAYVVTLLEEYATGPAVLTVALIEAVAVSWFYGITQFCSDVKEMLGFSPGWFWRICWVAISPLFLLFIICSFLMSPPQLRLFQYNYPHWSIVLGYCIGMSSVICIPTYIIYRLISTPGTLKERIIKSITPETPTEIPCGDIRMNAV
The target of experiment [4] is 5-hydroxytryptamine receptor 2A (Rattus norvegicus, UniProt P14842). Put plainly: Binding affinity towards 5-HT 2A receptor in rat cerebral frontal cortex membranes using [3H]ketanserin as radioligand. Format: tissue-based, Membrane.
Sequence of 5-hydroxytryptamine receptor 2A (P14842 whole entry): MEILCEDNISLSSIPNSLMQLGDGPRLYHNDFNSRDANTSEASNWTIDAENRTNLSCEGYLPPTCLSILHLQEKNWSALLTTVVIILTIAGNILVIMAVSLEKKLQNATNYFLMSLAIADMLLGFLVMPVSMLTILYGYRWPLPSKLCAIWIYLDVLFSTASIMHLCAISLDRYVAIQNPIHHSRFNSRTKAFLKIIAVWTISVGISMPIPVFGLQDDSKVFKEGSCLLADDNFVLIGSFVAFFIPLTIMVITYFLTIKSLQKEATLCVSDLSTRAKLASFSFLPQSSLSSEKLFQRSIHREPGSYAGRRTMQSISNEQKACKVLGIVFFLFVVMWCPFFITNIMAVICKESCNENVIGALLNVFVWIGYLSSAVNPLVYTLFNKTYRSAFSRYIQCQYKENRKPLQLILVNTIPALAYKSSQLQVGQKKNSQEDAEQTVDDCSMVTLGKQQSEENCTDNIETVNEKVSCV
Experiment [5] has as its target 5-hydroxytryptamine receptor 4 (Rattus norvegicus, UniProt Q62758). As to the kind of experiment: Binding affinity towards 5-HT 4 receptor in rat striatum membranes using [3H]GR-113808 as radioligand. Format: cell membranes, Membrane.
Another experiment has as its target D(2) dopamine receptor (Rattus norvegicus, UniProt P61169). As to the kind of experiment: Binding affinity towards dopamine D2 receptor in rat striatum membranes using [3H]raclopride as radioligand. Format: cell membranes, Membrane.
Experiment [6] deals with GABA-A receptor; anion channel. Put plainly: Displacement of [3H]flunitrazepam from GABA-A benzodiazepine receptor of rat cerebral cortex membranes. Format: cell membranes, Membrane.
Experiment [7] deals with 5-hydroxytryptamine receptor 7 (Rattus norvegicus, UniProt P32305). Put plainly: Binding affinity towards 5-HT 7 receptor in rat hypothalamus membranes using [3H]5-CT as radioligand. Format: cell membranes, Membrane.
Sequence of 5-hydroxytryptamine receptor 7 (P32305 whole entry): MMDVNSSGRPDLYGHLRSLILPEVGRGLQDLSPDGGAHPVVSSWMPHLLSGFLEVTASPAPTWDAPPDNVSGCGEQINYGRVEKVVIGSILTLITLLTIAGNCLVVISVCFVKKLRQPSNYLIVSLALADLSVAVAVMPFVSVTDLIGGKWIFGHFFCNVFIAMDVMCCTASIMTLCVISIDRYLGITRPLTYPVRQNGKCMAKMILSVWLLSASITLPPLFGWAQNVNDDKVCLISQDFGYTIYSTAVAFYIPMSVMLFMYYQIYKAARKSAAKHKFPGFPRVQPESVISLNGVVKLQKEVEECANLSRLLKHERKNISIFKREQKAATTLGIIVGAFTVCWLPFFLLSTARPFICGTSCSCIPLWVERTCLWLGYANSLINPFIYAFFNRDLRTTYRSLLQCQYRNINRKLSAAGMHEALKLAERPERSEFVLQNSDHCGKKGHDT

SMILES strings stand for the structures. pKi: −log10 of the molar value.

Sequence of D(2) dopamine receptor (P61169 whole entry): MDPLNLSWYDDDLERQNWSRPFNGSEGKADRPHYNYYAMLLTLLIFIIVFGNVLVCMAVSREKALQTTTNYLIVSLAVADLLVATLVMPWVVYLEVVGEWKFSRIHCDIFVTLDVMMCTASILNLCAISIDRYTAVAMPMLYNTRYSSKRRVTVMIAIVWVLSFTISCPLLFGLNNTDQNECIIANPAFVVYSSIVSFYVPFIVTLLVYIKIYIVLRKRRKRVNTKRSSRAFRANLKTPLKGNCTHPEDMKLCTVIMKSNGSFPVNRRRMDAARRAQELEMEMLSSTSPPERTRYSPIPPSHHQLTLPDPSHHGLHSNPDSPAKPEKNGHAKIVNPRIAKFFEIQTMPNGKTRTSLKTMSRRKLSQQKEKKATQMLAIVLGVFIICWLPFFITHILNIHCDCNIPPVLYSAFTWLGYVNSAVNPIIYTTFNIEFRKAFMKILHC
Sequence of 5-hydroxytryptamine receptor 4 (Q62758 whole entry): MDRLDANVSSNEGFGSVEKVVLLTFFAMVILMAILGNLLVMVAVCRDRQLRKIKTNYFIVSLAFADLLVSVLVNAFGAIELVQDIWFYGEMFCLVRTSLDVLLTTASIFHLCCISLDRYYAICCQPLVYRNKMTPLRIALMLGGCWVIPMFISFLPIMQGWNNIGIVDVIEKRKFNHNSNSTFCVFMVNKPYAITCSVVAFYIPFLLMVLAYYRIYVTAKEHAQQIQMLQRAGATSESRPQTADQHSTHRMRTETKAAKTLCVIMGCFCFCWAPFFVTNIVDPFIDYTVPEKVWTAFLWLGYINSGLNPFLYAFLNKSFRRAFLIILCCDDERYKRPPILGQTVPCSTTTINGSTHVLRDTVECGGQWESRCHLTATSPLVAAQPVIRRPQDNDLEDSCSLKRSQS

Take `O=C1C2CCCCN2C(=O)N1CN1CCN(c2cccc3c2COCCO3)CC1` (configuration not stated): the Ki in experiment [1] is more than 1000 nM. The molecule further gave a pKi in experiment [2] of 8.21.
For the molecule `O=C1C2CCCN2C(=O)CN1CN1CCN(c2cccc3c2COCCO3)CC1` (configuration not stated), the Ki in experiment [1] is listed as more than 1000 nM. This molecule also showed a pKi in experiment [2] of 7.91.
With `O=C1C2CCCN2C(=O)CN1CN1CCN(c2cccc3ccccc23)CC1` (configuration not stated), the negative-log Ki (pKi) in experiment [3] is 6.01; in experiment [4], 7.87; in experiment [2] it was 8.39; in experiment [5] it was less than 5.00; on D(2) dopamine receptor, 6.72; in experiment [6], less than 5.00. The molecule also gave a pKi in experiment [7] of 7.00. Further, in experiment [1], the Ki was more than 1000 nM.
With `O=C1C2CCCN2C(=O)N1CCCCN1CCN(c2cccc3ccccc23)CC1` (configuration not stated), in experiment [1], the Ki was 64.9 nM. Moreover, the pKi in experiment [2] is 8.62.
Regarding `O=C1C2CCCN2C(=O)N1CN1CCN(c2cccc3[nH]cnc23)CC1` (configuration not stated), the Ki in experiment [1] amounted to 10000 nM. The same molecule showed a pKi in experiment [2] of 8.39.
`O=C1C2CCCCN2C(=O)N1CN1CCN(c2cccc3c2OCCO3)CC1` (configuration not stated) returned a Ki in experiment [1] of more than 1000 nM. This molecule showed a pKi in experiment [2] of 8.03.
`O=C1C2CCCN2C(=O)N1CN1CCN(c2cccc3ccccc23)CC1` (configuration not stated) gave a Ki in experiment [1] of more than 1000 nM. This molecule also gave a pKi in experiment [2] of 7.98.
Take `O=C1C2CCCCN2C(=O)N1CN1CCN(c2cccc3ccccc23)CC1` (configuration not stated): the inhibition constant Ki in experiment [1] is more than 1000 nM. This molecule gave a pKi in experiment [2] of 8.25.

These data come from ChEMBL document CHEMBL1136702, “Design and synthesis of S-(-)-2-[[4-(napht-1-yl)piperazin-1-yl]methyl]-1,4-dioxoperhydropyrrolo[1,2-a]pyrazine (CSP-2503) using computational simulation. A 5-HT1A receptor agonist” (Bioorg Med Chem Lett, 2003).
